Test results taken from patent US5064850A, “Dihydro-3,3-diphenyl-5-(1H-pyrazol-1-ylmethyl-2(3H)-furanone and dihydro-5-((substituted-1H-pyrazol-1-yl)methyl)-3,3-diphenyl-2(3H)-furan one derivatives” (Marion Merrell Dow Inc., priority 1991, dated 1991).
Counter-ions that a name gives are not always drawn.

molecular target: T1, postsynaptic muscarinic cholinergic receptors on intestinal (ileal-longitudinal) smooth muscle (Cavia porcellus, UniProt H0W1Z3); assay: Antimuscarinic Test Protocol: antagonism of carbachol-induced contraction of ileum strips (Table 1); type: cell-based, guinea pig; details: carbachol as agonist, read-out: Anti-muscarinic Activity Kb
T1 construct: The longitudinal muscle, with the myenteric plexus attached, is separated from the underlying circular muscle; from tissue; host or cells: guinea pig ileum, longitudinal muscle strip with myenteric plexus attached
T1 sequence (H0W1Z3 1-590): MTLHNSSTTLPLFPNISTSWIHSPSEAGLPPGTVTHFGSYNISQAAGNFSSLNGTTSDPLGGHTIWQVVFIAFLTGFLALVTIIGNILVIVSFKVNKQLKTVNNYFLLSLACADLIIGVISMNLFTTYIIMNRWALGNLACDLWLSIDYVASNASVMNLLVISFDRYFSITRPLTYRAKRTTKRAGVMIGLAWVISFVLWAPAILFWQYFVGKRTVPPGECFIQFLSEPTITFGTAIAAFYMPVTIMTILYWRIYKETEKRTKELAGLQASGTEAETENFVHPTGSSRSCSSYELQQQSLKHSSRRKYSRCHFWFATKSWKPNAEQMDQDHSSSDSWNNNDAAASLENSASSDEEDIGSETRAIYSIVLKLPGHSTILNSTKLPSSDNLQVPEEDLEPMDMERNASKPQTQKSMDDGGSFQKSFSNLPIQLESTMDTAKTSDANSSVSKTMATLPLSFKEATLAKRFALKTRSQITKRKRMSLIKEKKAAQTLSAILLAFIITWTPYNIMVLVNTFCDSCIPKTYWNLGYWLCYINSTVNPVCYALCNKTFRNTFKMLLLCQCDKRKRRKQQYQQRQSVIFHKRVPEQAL
Description: Antimuscarinic Test Protocol.
Male albino guinea pigs are killed by decapitation or cervical dislocation. The cavity is opened and the small intestine is removed, with about 10 cm of the terminal ileum being discarded. The intestine is placed in a Petri dish that contains Tyrodes solution (137 mM NaCl, 2.78 mM KCl, 1.8 mM CaCl2.2H2 O, 1.1 mM MgCl2.6H2 O, 0.4 mM […], 11.8 mM NaHCO3, 5.6 mM dextrose) and cut into 3-4 cm segments. The segments are preferentially taken from the aboral end of the ileum. Each segment is carefully stretched onto a glass rod 6 mm in diameter and the remaining mesenteric tissue is cut away. The longitudinal muscle, with the myenteric plexus attached, is separated from the underlying circular muscle by gently stroking with a cotton-tipped applicator soaked in Tyrodes solution on a tangent away from the shallow longitudinal incisions made parallel to the mesenteric attachment. Using gentle traction, and taking care to keep the segment moist throughout the whole procedure, the tissue is stripped from the whole length of the segment (Paton and Zar, J. Physiol. 194:13, 1968).
Tissues are suspended with 5-0 silk suture in 10 mL water-jacketed glass tissue baths containing Tyrodes solution maintained at 37° C. and aerated with 95% O2 /5% CO2. The suture connects each tissue to an isometric force-displacement transducer (Grass or Gould) coupled to a physiograph. Each preparation is suspended under a resting tension of 0.3 g and allowed to equilibrate for 36 minutes. During this period, the baths are emptied and filled every 12 minutes with 10 mL of warm Tyrodes solution. At the end of this equilibration period, each muscle strip is conditioned by adding 10 mM carbachol to the baths. The drug remains in contact with each tissue for 1-2 minutes and then is removed from the bath with 4 rapid rinses of 10 mL of warm Tyrodes solution. The preparations are allowed to recover for an additional 12 minutes before being used in experiments.
Carbachol is dissolved in saline to produce 2×10^-2 M stock concentrations. Serial dilutions (1:10) in saline or water are made from the stock solution. Appropriate volumes of these solutions are added cumulatively to the 10 mL tissue baths in order to obtain the desired bath concentrations.
Compounds that are soluble in water or saline are dissolved in these solvents to produce 2×10^-2 or 2×10^-3 M stock concentrations. Small amounts of 1 N HCl, NaOH, or 95 ethanol may be added for those agents that are not soluble in water or saline alone. […] in dimethylsulfoxide (DMSO) to produce 4×10^-2 M stock solutions. Serial dilutions (1:10) in water are made from the stock solution. Other solvents may be used when appropriate and will be specifically described in the experimental procedure. Appropriate volumes are then added to the baths in order to obtain the desired bath concentrations.
Appropriate volumes of carbachol solutions are cumulatively added to the 10 mL tissue baths to increase the concentration of carbachol in the bath step-by-step without washing out after each single dose. With each concentration step, the tissue contracts isometrically. The next concentration is added only after the preceding contraction has reached a steady value. […] The tissue is then washed with 4 rapid rinses of 10 mL of warm Tyrodes solution and allowed to recover for 12 minutes [Van Rossum et al., Arch. Int. Pharmacodyn. 143:240, (1963) and 143:299, (1963)]. Antagonism of carbachol responses in the presence of antagonist is determined by repeating the cumulative addition procedure after the tissue has been exposed to the […] for 5 minutes.
Three or four different concentrations of antagonist are studied in the same preparations. Responses are expressed relative to the maximum contraction elicited by carbachol in the absence of antagonist.

Structure (SMILES)	Kb [nM]
Cc1ccn(CC2CC(c3ccccc3)(c3ccccc3)C(=O)O2)n1 (centres unmarked) [Dihydro-5-[(3-methyl-1H-pyrazol-1-yl)methyl]-3,3-diphenyl-2(3H)-furanone]	239
Cc1cnn(CC2CC(c3ccccc3)(c3ccccc3)C(=O)O2)c1 (centres unmarked) [Dihydro-5-[(4-methyl-1H-pyrazol-1-yl)methyl]-3,3-diphenyl-2(3H)-furanone]	251
O=C1OC(Cn2cccn2)CC1(c1ccccc1)c1ccccc1 (centres unmarked) [Dihydro-3,3-diphenyl-5-(1H-pyrazol-1-ylmethyl)-2(3H)-furanone]	50
CC[n+]1cccn1CC1CC(c2ccccc2)(c2ccccc2)C(=O)O1 (centres unmarked) [Ethyl dihydro-3,3-diphenyl-5-(1H-pyrazol-1-ylmethyl)-2(3H)-furanone chloride]	49
Cc1cc(C)n(CC2CC(c3ccccc3)(c3ccccc3)C(=O)O2)n1 (centres unmarked) [Dihydro-5-[(3,5-dimethyl-1H-pyrazol-1-yl)methyl]-3.3-diphenyl-2(3H)-furanone hydrochloride]	1000

Next, values leading:

Kb [nM]	Structure (SMILES)
117	Cc1cn(CC2CC(c3ccccc3)(c3ccccc3)C(=O)O2)[n+](C)c1 (centres unmarked) [Methyl dihydro-5-[(4-methyl-1H-pyrazol-1-yl)methyl]-3,3-diphenyl-2(3H)-furanone chloride hydrate]
142	Cc1ccn(CC2CC(c3ccccc3)(c3ccccc3)C(=O)O2)[n+]1C (centres unmarked) [Methyl dihydro-5-[(3-methyl-1H-pyrazol-1-yl)methyl]-3,3-diphenyl-2(3H)-furanone chloride hydrate]
52	CC[n+]1c(C)ccn1CC1CC(c2ccccc2)(c2ccccc2)C(=O)O1 (centres unmarked) [Ethyl dihydro-5-[(3-methyl-1H-pyrazol-1-yl)methyl]-3,3-diphenyl-2(3H)-furanone chloride hydrate]
148	CC[n+]1cc(C)cn1CC1CC(c2ccccc2)(c2ccccc2)C(=O)O1 (centres unmarked) [Ethyl dihydro-5-[(4-methyl-1H-pyrazol-1-yl)methyl]-3,3-diphenyl-2(3H)-furanone chloride hydrate]
100	C[n+]1cccn1CC1CC(c2ccccc2)(c2ccccc2)C(=O)O1 (centres unmarked) [Methyl dihydro-3,3-diphenyl-5-(1H-pyrazol-1-ylmethyl)-2(3H)-furanone chloride hydrate]

test system: isolated guinea pig ileum; assay: not given; details: cited from earlier work

Structure (SMILES)	prevention of contractions of isolated guinea pig ileum
CN(C)CC1CC(c2ccccc2)(c2ccccc2)OC1=O (centres unmarked) [3-[(dimethylamino)methyl]-4,5-dihydro-5,5-diphenyl-2(3H)furanone]	prevents contractions of isolated guinea pig ileum
